# Data from ChEMBL document CHEMBL4392888, “Isolation of Sesquiterpene-Amino Acid Conjugates, Onopornoids A-D, and a Flavonoid Glucoside from Onopordum alexandrinum” (J Nat Prod, 2019).
# Columns and labels:
# Tyrosinase = biological target: T1, Tyrosinase (Homo sapiens, UniProt P14679); assay: Inhibition of tyrosinase (unknown origin)
# T1 sequence (P14679 whole entry): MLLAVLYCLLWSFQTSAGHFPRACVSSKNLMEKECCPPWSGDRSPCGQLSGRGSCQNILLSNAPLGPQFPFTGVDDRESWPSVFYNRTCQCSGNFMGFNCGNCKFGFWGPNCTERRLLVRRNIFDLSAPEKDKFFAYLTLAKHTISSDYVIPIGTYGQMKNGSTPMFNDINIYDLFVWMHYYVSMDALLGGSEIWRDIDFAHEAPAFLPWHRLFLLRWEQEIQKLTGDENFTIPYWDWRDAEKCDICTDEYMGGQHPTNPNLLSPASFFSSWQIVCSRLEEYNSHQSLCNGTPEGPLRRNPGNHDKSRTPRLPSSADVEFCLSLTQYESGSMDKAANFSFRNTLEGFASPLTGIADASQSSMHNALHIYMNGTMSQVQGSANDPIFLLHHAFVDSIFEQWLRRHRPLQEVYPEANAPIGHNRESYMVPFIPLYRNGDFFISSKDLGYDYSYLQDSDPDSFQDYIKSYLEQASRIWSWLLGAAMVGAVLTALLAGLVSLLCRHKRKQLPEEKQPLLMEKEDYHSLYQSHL
# Leishmania = assay: Antimicrobial activity against Leishmania; type: functional, organism-based
# Bacteria = assay: Antimicrobial activity against bacteria; type: functional, organism-based
# [1] = Antioxidant activity assessed as DPPH radical scavenging activity incubated for 30 mins by UV-spectrophotometric method; type: functional
Compound,IC50 (Tyrosinase) [µM],IC50 (Leishmania) [µM],IC50 (Bacteria) [µM],IC50 [1] [µM]
C=C[C@]1(C)C[C@H](OC(=O)C(=C)CO)[C@@H]2[C@H](OC(=O)[C@H]2CN2CCC[C@H]2C(=O)O)[C@H]1C(=C)CO,> 50,> 50,> 50,
C=C[C@]1(C)C[C@H](OC(=O)[C@@H](C)CO)[C@@H]2[C@H](OC(=O)[C@H]2CN2CCC[C@H]2C(=O)O)[C@H]1C(=C)CO,> 50,> 50,> 50,
COc1ccc(-c2cc(=O)c3c(O)cc(O[C@@H]4O[C@H](CO[C@@H]5O[C@@H](C)[C@H](O)[C@@H](O)[C@H]5O)[C@@H](O)[C@H](O)[C@H]4O)cc3o2)cc1 [ACACIIN],> 50,> 50,> 50,
COc1ccc(C[C@H]2COC(=O)[C@@H]2Cc2ccc(O[C@@H]3O[C@H](CO)[C@@H](O)[C@H](O)[C@H]3O)c(OC)c2)cc1OC [ARCTIIN],> 50,> 50,> 50,
C=C(CO)C(=O)O[C@H]1C/C(C)=C/CC/C(CO)=C/[C@H]2OC(=O)[C@@H](CN3CCC[C@H]3C(=O)O)[C@H]12,> 50,> 50,> 50,
COC(=O)[C@H]1O[C@@H](Oc2cc(O)c3c(=O)cc(-c4ccc(OC)cc4)oc3c2)[C@H](O)[C@@H](O)[C@@H]1O,> 50,> 50,> 50,
C=C[C@]1(C)C[C@H](OC(=O)/C(=C/C)CO)[C@@H]2[C@H](OC(=O)[C@H]2CN2CCC[C@H]2C(=O)O)[C@H]1C(=C)CO,> 50,> 50,> 50,
C[C@@H]1O[C@@H](OC[C@H]2O[C@@H](Oc3cc(O)c4c(=O)cc(-c5ccc(O)cc5)oc4c3)[C@H](O)[C@@H](O)[C@@H]2O)[C@H](O)[C@H](O)[C@H]1O [ISORHOIFOLIN],> 50,> 50,> 50,

# Other lines, results leading:
IC50 (Tyrosinase) [µM],IC50 (Leishmania) [µM],IC50 (Bacteria) [µM],IC50 [1] [µM],Compound
> 50,> 50,> 50,,COc1ccc(-c2cc(=O)c3c(O)cc(O[C@@H]4O[C@H](CO)[C@@H](O)[C@H](O)[C@H]4O)cc3o2)cc1 [TILIANINE]
> 50,> 50,> 50,75.3,O=c1c(O[C@@H]2O[C@H](CO)[C@@H](O)[C@H](O)[C@H]2O)c(-c2ccc(O)c(O)c2)oc2cc(O)cc(O)c12 [ISOQUERCETIN]
> 50,> 50,> 50,,C[C@@H]1O[C@@H](Oc2cc(O)c3c(=O)cc(-c4ccc(O)cc4)oc3c2)[C@H](O)[C@H](O)[C@H]1O
> 50,> 50,> 50,,COC(=O)[C@H]1O[C@@H](Oc2cc(O)c3c(=O)cc(-c4ccc(O)cc4)oc3c2)[C@H](O)[C@@H](O)[C@@H]1O
> 50,> 50,> 50,68.9,O=C(/C=C/c1ccc(O)c(O)c1)O[C@H]1[C@H](O)[C@@H](O)[C@H](Oc2cc(O)c3c(=O)cc(-c4ccc(O)c(O)c4)oc3c2)O[C@@H]1CO
> 50,> 50,> 50,,O=c1cc(-c2ccc(O)cc2)oc2cc(O[C@@H]3O[C@H](CO)[C@@H](O)[C@H](O)[C@H]3O)cc(O)c12 [APIGETRIN]
